Data on one compound can be found in patent US7104958B2, “Systems and methods for investigating intracranial pressure” (New Health Sciences, Inc., priority 2001, dated 2006).

The structures appear in SMILES notation.

In the assay the test system is cerebral vessels. The protocol:
These are the symptoms upon presentation in the neurological clinic. Transcranial Doppler analysis of all cerebral vessels is performed in addition to analyzing the common carotid artery and the internal carotid artery.
The physician considers prescription of Plavix together with a calcium channel blocker. Transcranial Doppler analysis was performed at monthly intervals. […] The physician subsequently administers a higher dose. Again, transcranial Doppler analysis is performed on all cerebral vessels.
The patient is then monitored on a monthly basis after the initial prescription of Plavix in order to determine whether vascular changes are occurring which necessitate alteration in the therapy.

Setting [1] is: same patient, higher dose, transcranial Doppler on all cerebral vessels.

With `COC(=O)[C@H](c1ccccc1Cl)N1CCc2sccc2C1` [Plavix], the “changes in the individual cerebral vessels” value (person after first stroke, Plavix +/- calcium channel blocker, initial dose, transcranial Doppler at monthly intervals) is on record as “no effect on the cerebral vessels”. Besides, under setting [1], the auto-regulation curve entry was “left-shifts toward normal” and the pulsatility index result is “decreases”.
